The subject of experiment [1] is Mus musculus. The experiment in a line: Antiinflammatory activity in mouse assessed as inhibition of LPS-induced TNFalpha at 30 mg/kg relative to prednisolone. Type of experiment: functional.
Experiment [2] relates to Mus musculus. The experiment can be described thus: Normalized AUC in iv dosed mouse. Type of experiment: functional, organism-based.
Experiment [3] has as its system Mus musculus. The experiment in a line: Clearance in iv dosed mouse. It is filed as functional, organism-based.
For experiment [4], the system named is Mus musculus. The experiment in a line: Half life in iv dosed mouse. It is filed as functional, organism-based.
For experiment [5], the system named is Mus musculus. The experiment in a line: Oral bioavailability in mouse. It is filed as functional, organism-based.
A short description of experiment [6]: Displacement of [3H]dexamethasone from human glucocorticoid receptor alpha. (In general: In a radioligand displacement assay an active substance lowers the binding of a labelled ligand.)
Experiment [7] addresses T1, Glucocorticoid receptor (Homo sapiens) (UniProt P04150).
T1 sequence (whole entry): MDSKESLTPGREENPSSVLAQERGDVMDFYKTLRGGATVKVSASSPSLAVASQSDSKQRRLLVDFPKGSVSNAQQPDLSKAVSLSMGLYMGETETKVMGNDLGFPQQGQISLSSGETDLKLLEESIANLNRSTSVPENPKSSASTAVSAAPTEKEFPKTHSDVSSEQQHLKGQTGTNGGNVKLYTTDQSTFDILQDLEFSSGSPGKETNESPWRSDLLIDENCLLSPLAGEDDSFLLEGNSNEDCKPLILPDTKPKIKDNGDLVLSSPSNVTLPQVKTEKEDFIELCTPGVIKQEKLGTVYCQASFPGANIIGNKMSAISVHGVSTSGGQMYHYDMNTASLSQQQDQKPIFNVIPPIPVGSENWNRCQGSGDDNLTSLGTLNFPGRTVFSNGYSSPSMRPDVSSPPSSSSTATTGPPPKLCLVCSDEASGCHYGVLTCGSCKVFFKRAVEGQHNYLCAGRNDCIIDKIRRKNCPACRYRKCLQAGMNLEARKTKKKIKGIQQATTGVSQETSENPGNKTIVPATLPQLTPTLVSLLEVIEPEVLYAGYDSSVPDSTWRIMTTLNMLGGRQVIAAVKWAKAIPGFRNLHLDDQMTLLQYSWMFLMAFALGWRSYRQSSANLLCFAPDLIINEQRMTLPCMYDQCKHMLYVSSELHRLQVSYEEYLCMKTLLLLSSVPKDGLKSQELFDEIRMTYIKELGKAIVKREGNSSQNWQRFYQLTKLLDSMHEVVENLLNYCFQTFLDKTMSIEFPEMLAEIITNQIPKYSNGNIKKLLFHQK
The experiment can be described thus: (§1) Activity at human glucocorticoid receptor in human A549 cells assessed as repression of human IL6. Type of experiment: cell-based.

The target in experiment [8] is T1, Glucocorticoid receptor (Homo sapiens). The experiment in a line: Activity at human glucocorticoid receptor in human HepG2 cells assessed as tyrosine amino transferase activity. Type of experiment: cell-based.
For another experiment, the target named is T2, Glucocorticoid receptor (Homo sapiens, UniProt P04150).
T2 sequence (P04150 whole entry): T1 sequence (whole entry)
Described as §1. It is filed as cell-based.

The target of experiment [9] is Glucocorticoid receptor (Mus musculus) (UniProt P06537). The experiment in a line: Activity at mouse glucocorticoid receptor in C2C12 cells assessed as mouse glutamine synthetase activity.
Glucocorticoid receptor (Mus musculus), sequence (P06537 whole entry, looked up): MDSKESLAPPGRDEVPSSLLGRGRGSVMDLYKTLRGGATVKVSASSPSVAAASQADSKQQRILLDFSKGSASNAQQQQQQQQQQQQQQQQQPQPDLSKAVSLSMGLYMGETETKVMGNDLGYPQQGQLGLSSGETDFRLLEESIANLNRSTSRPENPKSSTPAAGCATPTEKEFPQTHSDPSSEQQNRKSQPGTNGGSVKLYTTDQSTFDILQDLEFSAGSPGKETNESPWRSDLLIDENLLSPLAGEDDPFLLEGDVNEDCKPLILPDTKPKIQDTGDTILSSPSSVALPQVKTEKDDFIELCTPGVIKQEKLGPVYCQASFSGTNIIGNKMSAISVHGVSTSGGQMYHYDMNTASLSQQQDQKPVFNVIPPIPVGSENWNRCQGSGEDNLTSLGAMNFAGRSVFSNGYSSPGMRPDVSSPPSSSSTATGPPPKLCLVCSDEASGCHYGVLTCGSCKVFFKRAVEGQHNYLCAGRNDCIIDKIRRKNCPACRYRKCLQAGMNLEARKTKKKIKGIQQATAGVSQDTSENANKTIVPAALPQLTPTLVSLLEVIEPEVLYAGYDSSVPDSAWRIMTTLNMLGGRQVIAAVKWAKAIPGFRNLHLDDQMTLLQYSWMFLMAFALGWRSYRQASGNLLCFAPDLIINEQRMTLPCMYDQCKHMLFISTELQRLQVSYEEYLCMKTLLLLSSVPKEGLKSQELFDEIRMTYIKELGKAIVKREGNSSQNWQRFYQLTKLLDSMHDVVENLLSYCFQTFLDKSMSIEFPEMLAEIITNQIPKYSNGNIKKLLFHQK
Experiment [10] concerns Mus musculus. The experiment in a line: Antiinflammatory activity in mouse assessed as inhibition of LPS-induced TNFalpha at 3 mg/kg. More on the design: scale not given: the % may be the effect or the level left. It is filed as functional.
The species named for experiment [11] is Mus musculus. The experiment in a line: animal or person. As to conditions: read-out: Inhibition.

For orientation: IC50 means the concentration that inhibits the measured activity by half. The term EC50 denotes the concentration needed to bring the measured effect to its halfway point.

The structures appear in SMILES notation. Active and inactive are the calls of the source. The rule behind the calls is not given here.

Regarding `C[C@]12Cc3cnn(-c4ccc(F)cc4)c3C=C1CC[C@@H]2[C@H](O)c1csc2ccccc12`, the inhibition in vivo at 30 mg/kg with Mus musculus [1] was 103%. For the same compound, in the experiment with Mus musculus [2], the AUC was 1.7 µM·h/mg/kg. Also, the CL (mL.min-1.kg-1) in the experiment with Mus musculus [3] was found to be 22.3. In the experiment on Mus musculus [4], this compound displayed a T1/2 of 7.8 h. In the experiment on Mus musculus [5], this compound yielded a bioavailability of 34%.
`C[C@]12Cc3cnn(-c4ccc(F)cc4)c3C=C1CC[C@@H]2[C@H](O)c1cc2ccccc2s1`: in [6], the IC50 turned out to be 689 nM. The outcome in experiment [7] and in experiment [8] was inactive.
Take `C[C@]12Cc3cnn(-c4ccc(F)cc4)c3C=C1CCC[C@@H]2[C@@H](O)c1ccsc1`: in experiment [6], the IC50 is 5.1 nM. Further, at Glucocorticoid receptor, the EC50 came to 1 nM.
Take `C[C@]12Cc3cnn(-c4ccc(F)cc4)c3C=C1CCC[C@@H]2[C@@H](O)c1cc2ccccc2s1`: the EC50 in experiment [9] turned out to be 1210 nM.
In turn, `C[C@]12Cc3cnn(-c4ccc(F)cc4)c3C=C1CCC[C@@H]2[C@H](O)c1csc2ccccc12` displayed an IC50 in experiment [6] of 1.5 nM. For the same compound, in [9], the EC50 was 3 nM.
In experiment [6], `C[C@]12Cc3cnn(-c4ccc(F)cc4)c3C=C1CC[C@@H]2[C@@H](O)c1ccc2ccccc2c1` showed an IC50 of 86 nM. Further, the outcome in experiment [8] and in [9] was inactive.
Consider `C[C@]12Cc3cnn(-c4ccc(F)cc4)c3C=C1CC[C@@H]2[C@H](O)c1ccc2ccccc2c1`, for which the IC50 in [6] worked out at 198 nM. For the same compound, the result in experiment [8] and in experiment [9] was inactive.
As for `C[C@]12Cc3cnn(-c4ccc(F)cc4)c3C=C1CC[C@@H]2[C@@H](O)c1cc2ccccc2s1`, the IC50 in experiment [6] was 69.1 nM. The outcome in experiment [8] and in experiment [9] was inactive.
Consider `C[C@]12Cc3cnn(-c4ccc(F)cc4)c3C=C1CCC[C@@H]2[C@@H](O)c1csc2ccccc12`, for which the IC50 in experiment [6] was 5.1 nM.
As to `C[C@]12Cc3cnn(-c4ccc(F)cc4)c3C=C1CC[C@@H]2[C@@H](O)c1csc2ccccc12`, in the experiment on Mus musculus [1], the inhibition in vivo at 30 mg/kg worked out at 113%.
In the case of `C[C@]12C=CC(=O)C=C1CC[C@@H]1[C@@H]2[C@@H](O)C[C@@]2(C)[C@H]1CC[C@]2(O)C(=O)CO` [PREDNISOLONE], the Activity in the experiment with Mus musculus [10] turned out to be 71%. The inhibition in vivo at 3 mg/kg in the experiment listed under Mus musculus [11] was determined as 100%.

(Values after ChEMBL document CHEMBL1148027, “Novel glucocorticoids containing a 6,5-bicyclic core fused to a pyrazole ring: synthesis, in vitro profile, molecular modeling studies, and in vivo experiments” (Bioorg Med Chem Lett, 2007).)
